{
  "source": "patent US20230143612A1",
  "about": "(Arbutus Biopharma Corporation, priority 2020, published 2023)",
  "data": [
    {"molecular_target": "PD-L1 His protein / PD-1 Fc protein (Homo sapiens, UniProt Q9NZQ7)", "sequence (Q9NZQ7 19-238 limits assumed)": "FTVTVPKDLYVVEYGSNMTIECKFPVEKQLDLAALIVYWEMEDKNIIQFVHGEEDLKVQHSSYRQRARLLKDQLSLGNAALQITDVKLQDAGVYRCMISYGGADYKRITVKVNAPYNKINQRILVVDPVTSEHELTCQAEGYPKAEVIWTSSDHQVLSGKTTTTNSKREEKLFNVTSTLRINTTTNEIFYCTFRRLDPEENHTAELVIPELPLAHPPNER", "test": "HTRF Assay (PD-1/PD-L1 interaction)", "type": "binding", "details": "PD-L1 His 6 nM, PD-1 Fc 6 nM", "outline": "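Compounds tested from 20 μM down to 0.001 μM (3-fold) against 6 nM PD-L1 His and 6 nM PD-1 Fc, 15 min room temperature incubation. Detection after 1 h at room temperature with Tb cryptate anti-6HIS and XL665 anti-human IgG reagents (mixture at 0.35 nM and 6.7 nM), HTRF signal.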", "units": {"IC50": "nM"}, "values": [
      {"molecule": "COc1nc(-c2cccc(-c3cccc(-c4ccn5c(=O)c(C)c(CNC[C@@H]6CCC(=O)N6)nc5c4)c3Cl)c2Cl)ccc1CNC[C@@H]1CCC(=O)N1", "note": "[Example 372, 8-(2,2′-Dichloro-3′-(6-methoxy-5-(((((S)-5-oxopyrrolidin-2-yl)methyl)amino)methyl)pyridin-2-yl)-[1,1′-biphenyl]-3-yl)-3-methyl-2-(((((S)-5-oxopyrrolidin-2-yl)methyl)amino)methyl)-4H-pyrido[1,2-a]pyrimidin-4-one]", "IC50": 60},
      {"molecule": "COc1nc(-c2cccc(-c3cccc(-c4cc(C)n5c(=O)c(C6=NCC(O)CN6)cnc5c4)c3Cl)c2Cl)ccc1CNC[C@@H]1CCC(=O)N1", "note": "(stereo partly drawn) [Example 323, 8-(2,2′-Dichloro-3′-(6-methoxy-5-(((((S)-5-oxopyrrolidin-2-yl)methyl)amino)methyl)pyridin-2-yl)-[1,1′-biphenyl]-3-yl)-3-(5-hydroxy-1,4,5,6-tetrahydropyrimidin-2-yl)-6-methyl-4H-pyrido[1,2-a]pyrimidin-4-one]", "IC50": 5.9},
      {"molecule": "COc1nc(-c2cccc(-c3cccc(-c4cnc5oc(CNC[C@@H]6CCC(=O)N6)cc5c4)c3Cl)c2Cl)ccc1CNC[C@@H]1CCC(=O)N1", "note": "[Example 459, (S)-5-((((6-(2,2′-Dichloro-3′-(2-(((((S)-5-oxopyrrolidin-2-yl)methyl)amino)methyl)furo[2,3-b]pyridin-5-yl)-[1,1′-biphenyl]-3-yl)-2-methoxypyridin-3-yl)methyl)amino)methyl)pyrrolidin-2-one]", "IC50": 200},
      {"molecule": "COc1nc(-c2cccc(-c3cccc(-c4ccn5c(=O)c(CN(C)CCO)cnc5c4)c3Cl)c2Cl)ccc1CNC[C@@H]1CCC(=O)N1", "note": "[Example 281, (S)-8-(2,2′-Dichloro-3′-(6-methoxy-5-((((5-oxopyrrolidin-2-yl)methyl)-amino)-methyl)pyridin-2-yl)-[1,1′-biphenyl]-3-yl)-3-(((2-hydroxyethyl)(methyl)amino)methyl)-4H-pyrido[1,2-a]-pyrimidin-4-one]", "IC50": 0.1},
      {"molecule": "COc1nc(-c2cccc(-c3cccc(-c4ccn5c(=O)c(CN6CCC[C@@]6(C)C(=O)O)cnc5c4)c3Cl)c2Cl)ccc1CNCCO", "note": "[Example 168, (S)-1-((8-(2,2′-Dichloro-3′-(5-(((2-hydroxyethyl)amino)methyl)-6-methoxypyridin-2-yl)-[1,1′-biphenyl]-3-yl)-4-oxo-4H-pyrido[1,2-a]pyrimidin-3-yl)methyl)-2-methylpyrrolidine-2-carboxylic acid]", "IC50": 0.2},
      {"molecule": "COc1nc(-c2cccc(-c3cccc(-c4ccn5c(=O)c(CN6CC[C@@H](O)C6)cnc5c4)c3Cl)c2Cl)ccc1CNC[C@@H]1CCC(=O)N1", "note": "[Example 169, 8-(2,2′-Dichloro-3′-(6-methoxy-5-(((((S)-5-oxopyrrolidin-2-yl)methyl)amino)methyl)pyridin-2-yl)-[1,1′-biphenyl]-3-yl)-3-(((R)-3-hydroxypyrrolidin-1-yl)methyl)-4H-pyrido[1,2-a]pyrimidin-4-one]", "IC50": 0.4},
      {"molecule": "CNC(=O)C(C)(C)NCc1cnc2cc(-c3cccc(-c4cccc(-c5ccc(CNC[C@@H]6CCC(=O)N6)c(OC)n5)c4Cl)c3Cl)ccn2c1=O", "note": "[Example 209, (S)-2-(((8-(2,2′-Dichloro-3′-(6-methoxy-5-((((5-oxopyrrolidin-2-yl)methyl)amino)methyl)pyridin-2-yl)-[1,1′-biphenyl]-3-yl)-4-oxo-4H-pyrido[1,2-a]pyrimidin-3-yl)methyl)amino)-N,2-dimethylpropanamide]", "IC50": 0.1},
      {"molecule": "COc1nc(-c2cccc(-c3cccc(-c4ccc5cc(CNC[C@@H]6CCC(=O)N6)ccc5n4)c3Cl)c2Cl)ccc1CNC[C@@H]1CCC(=O)N1", "note": "[Example 369, (5S)-5-[[[2-[2-Chloro-3-[2-chloro-3-[6-methoxy-5-[[[(2S)-5-oxopyrrolidin-2-yl]methylamino]methyl]-2-pyridyl]phenyl]phenyl]-6-quinolyl]methylamino]methyl]pyrrolidin-2-one]", "IC50": 560},
      {"molecule": "COC[C@@H](NCc1cnc2cc(-c3cccc(-c4cccc(-c5ccc(CNC[C@@H]6CCC(=O)N6)c(OC)n5)c4Cl)c3Cl)ccn2c1=O)C(=O)O", "note": "[Example 150, N-((8-(2,2′-Dichloro-3′-(6-methoxy-5-(((((S)-5-oxopyrrolidin-2-yl)methyl)amino)methyl)-pyridin-2-yl)-[1,1′-biphenyl]-3-yl)-4-oxo-4H-pyrido[1,2-a]pyrimidin-3-yl)methyl)-O-methyl-D-serine]", "IC50": 0.3},
      {"molecule": "COc1nc(-c2cccc(-c3cccc(-c4ccn5c(=O)c(CN(C)C[C@@H]6CCC(=O)N6)cnc5c4)c3C)c2Cl)ccc1CNC[C@@H]1CCC(=O)N1", "note": "[Example 54, 8-(2′-Chloro-3′-(6-methoxy-5-(((((S)-5-oxopyrrolidin-2-yl)methyl)amino)methyl)pyridin-2-yl)-2-methyl-[1,1′-biphenyl]-3-yl)-3-((methyl(((S)-5-oxopyrrolidin-2-yl)methyl)amino)methyl)-4H-pyrido[1,2-a]pyrimidin-4-one]", "IC50": 7},
      {"molecule": "COc1nc(-c2cccc(-c3cccc(-c4ccn5c(=O)c(CNC6CC7(CCNC7=O)C6)cnc5c4)c3Cl)c2Cl)ccc1CNC[C@@H]1CCC(=O)N1", "note": "(single isomer, unassigned) [Example 250]", "IC50": 1},
      {"molecule": "COc1nc(-c2cccc(-c3cccc(-c4ccn5c(=O)c(C)c(CNC[C@H](C)O)nc5c4)c3Cl)c2Cl)ccc1CNC[C@@H]1CCC(=O)N1", "note": "[Example 377, 8-(2,2′-Dichloro-3′-(6-methoxy-5-(((((S)-5-oxopyrrolidin-2-yl)methyl)amino)methyl)pyridin-2-yl)-[1,1′-biphenyl]-3-yl)-2-((((S)-2-hydroxypropyl)amino)methyl)-3-methyl-4H-pyrido[1,2-a]pyrimidin-4-one]", "IC50": 21},
      {"molecule": "COc1nc(-c2cccc(-c3cccc(-c4ccn5c(=O)c(CNC6CCN(C(C)=O)CC6)cnc5c4)c3Cl)c2Cl)ccc1CNC[C@@H]1CCC(=O)N1", "note": "[Example 256, 3-[[(1-Acetyl-4-piperidyl)amino]methyl]-8-[2-chloro-3-[2-chloro-3-[6-methoxy-5-[[[(2S)-5-oxopyrrolidin-2-yl]methylamino]methyl]-2-pyridyl]phenyl]phenyl]pyrido[1,2-a]pyrimidin-4-one]", "IC50": 0.1},
      {"molecule": "COc1nc(-c2cccc(-c3cccc(-c4ccc5c(CNC[C@@H]6CCC(=O)N6)cn(C)c5n4)c3Cl)c2Cl)ccc1CNC[C@@H]1CCC(=O)N1", "note": "[Example 388, (5S)-5-[[[6-[2-Chloro-3-[2-chloro-3-[1-methyl-3-[[[(2S)-5-oxopyrrolidin-2-yl]methylamino]methyl]pyrrolo[2,3-b]pyridin-6-yl]phenyl]phenyl]-2-methoxy-3-pyridyl]methylamino]methyl]pyrrolidin-2-one]", "IC50": 610},
      {"molecule": "COc1nc(-c2cccc(-c3cccc(-c4ccn5c(=O)c(CN(C)[C@H]6C[C@](C)(O)C6)cnc5c4)c3Cl)c2Cl)ccc1CNC[C@@H]1CCC(=O)N1", "note": "[Example 318, 8-(2,2′-Dichloro-3′-(6-methoxy-5-(((((S)-5-oxopyrrolidin-2-yl)methyl)-amino)-methyl)-pyridin-2-yl)-[1,1′-biphenyl]-3-yl)-3-((((1r,3r)-3-hydroxy-3-methylcyclobutyl)(methyl)amino)methyl)-4H-pyrido[1,2-a]pyrimidin-4-one]", "IC50": 0.1},
      {"molecule": "COc1nc(-c2cccc(-c3cccc(-c4cc5c(=O)n(C)c(CN[C@H]6C[C@](C)(O)C6)nn5c4)c3Cl)c2Cl)cc(Cl)c1CNC[C@@H]1CCC(=O)N1", "note": "[Example 464, 6-(2,2′-dichloro-3′-(4-chloro-6-methoxy-5-(((((S)-5-oxopyrrolidin-2-yl)methyl)amino)methyl)pyridin-2-yl)-[1,1′-biphenyl]-3-yl)-2-((((1r,3r)-3-hydroxy-3-methylcyclobutyl)amino)methyl)-3-methylpyrrolo[2,1-f][1,2,4]triazin-4(3H)-one]", "IC50": 7.5},
      {"molecule": "COc1nc(-c2cccc(-c3cccc(-c4cc5c(=O)n(C)c(CNC[C@@H]6CCC(=O)N6)nn5c4)c3Cl)c2Cl)ccc1CNC[C@@H]1CCC(=O)N1", "note": "[Example 331, 6-(2,2′-Dichloro-3′-(6-methoxy-5-(((((S)-5-oxopyrrolidin-2-yl)methyl)amino)methyl)pyridin-2-yl)-[1,1′-biphenyl]-3-yl)-3-methyl-2-(((((S)-5-oxopyrrolidin-2-yl)methyl)amino)methyl)pyrrolo[2,1-f][1,2,4]triazin-4(3H)-one]", "IC50": 310},
      {"molecule": "COc1nc(-c2cccc(-c3cccc(-c4ccc5nc(CN6CC(C)(O)C6)cc(=O)n5c4)c3Cl)c2Cl)ccc1CNC[C@@H]1CCC(=O)N1", "note": "[Example 222, (S)-7-(2,2′-dichloro-3′-(6-methoxy-5-((((5-oxopyrrolidin-2-yl)methyl)amino)methyl)pyridin-2-yl)-[1,1′-biphenyl]-3-yl)-2-((3-hydroxy-3-methylazetidin-1-yl)methyl)-4H-pyrido[1,2-a]pyrimidin-4-one]", "IC50": 0.2},
      {"molecule": "COc1nc(-c2cccc(-c3cccc(-c4cnc5c(CNC[C@@H]6CCC(=O)N6)c(OC)nn5c4)c3Cl)c2Cl)ccc1CNC[C@@H]1CCC(=O)N1", "note": "[Example 379, (S)-5-((((6-(2,2′-Dichloro-3′-(2-methoxy-3-(((((S)-5-oxopyrrolidin-2-yl)methyl)amino)methyl)pyrazolo[1,5-a]pyrimidin-6-yl)-[1,1′-biphenyl]-3-yl)-2-methoxypyridin-3-yl)methyl)amino)methyl)pyrrolidin-2-one]", "IC50": 5.6},
      {"molecule": "COc1nc(-c2cccc(-c3cccc(-c4ccn5c(=O)c(CN6CC[C@H](C(=O)O)C6)cnc5c4)c3Cl)c2Cl)ccc1CNCCO", "note": "[Example 172, (S)-1-((8-(2,2′-Dichloro-3′-(5-(((2-hydroxyethyl)amino)methyl)-6-methoxypyridin-2-yl)-[1,1′-biphenyl]-3-yl)-4-oxo-4H-pyrido[1,2-a]pyrimidin-3-yl)methyl)pyrrolidine-3-carboxylic acid]", "IC50": 0.3},
      {"molecule": "Cc1c(COc2cc(OCc3cncc(C(N)=O)c3)c(CNCCO)cc2Cl)cccc1-c1cccc(-c2ccn3c(=O)c(CNCCO)cnc3c2)c1", "note": "[Example 1, 5-((4-Chloro-2-(((2-hydroxyethyl)amino)methyl)-5-((3′-(3-(((2-hydroxyethyl)amino)methyl)-4-oxo-4H-pyrido[1,2-a]pyrimidin-8-yl)-2-methyl-[1,1′-biphenyl]-3-yl)methoxy)phenoxy)methyl)nicotinamide]", "IC50": 2.8}
    ]}
  ]
}
